According to patent US20130040882A1, “USE OF FIBROBLAST GROWTH FACTOR FRAGMENTS” (NOVARTIS AG, priority 2003, published 2013):
“And” between values parts separate entries of the source, which are not always exact repeats. Identical values can stand only once. “Also recorded” adds a separate entry of the source.

Key:
[1] = Salmon calcitonin/PTS893 monkey study: urinalysis; settings: urine
[2] = test system: gene expression in organs; assay: Blind monkey trial of three peptides: gene expression profiling of organs on Affymetrix U95 chips; format: in vivo, cynomolgus monkeys; settings: 100 μg/animal/day sc, two weeks; listed as Peptide 1
[3] = test system: hyperoxia-induced angioproliferative retinopathy; assay: Hypoxic vascular retinopathy mouse model: proliferation score on retinal flatmounts after intravitreal injection; format: in vivo, C57/B16J mice; design: key to blood vessel tufts: points summed over zones; Zone 2 max 4 P, Zones 3 and 4 max 12 P; avascular zone: scale not given here
Method: Seven days old C57/B16J mice are put together with their nursing parent in a sealed container ventilated by a mixture of oxygen and compressed air to a final oxygen concentration of 75%±2% until day 12. Returned at room air, the animals develop a relative ischemia of the retina with neovascularization starting as early as day 14.
On day 12, when animals returned from the oxygen incubation, a volume of 2.0 μl is injected in the eye using a glass pipette with a diameter of about 150 μm at its tip.
For the intravitreal injection of a substance at day 12, mice are anesthetized by inhalation of isoflurane. Five days later the animals are sacrificed after perfusion with dextran-fluorescein and retinal flatmounts are prepared. The coded whole mounts allow to evaluate the vascular changes of the retinal blindly. The proliferation score includes quantification of the proliferation including the papilla, vascular development, vasoconstriction, retinal bleeding and tortuosity of the vessels, features also seen in human retinal disease.
Of those, 8 animals died during hyperoxia or after injection, 2 animals are not perfused, 5 animals are paraffin embedded for evaluation of neurons, of which only three could be examined, and from 29 of these animals retinal flatmounts are prepared.
Evaluation of the angioproliferative changes in the retinal preparations is performed in a masked way on coded preparations. […] The following features are taken into consideration: neovascularisation of the optic disc, blood vessel tufts formation, large clusters of blood vessel tufts, central vasoconstriction and tortuosity of the vessels. Retinal haemorrhages are not taken into account as they may also result from the intraocular injection.
For each criteria, a defined number of points (P) is assigned, which are summed up to a total proliferation score. The higher the score, the worse the hypoxia induced retinopathy. In detail:
Neovascularisation of the optic disc: either 1 or 0 points are assigned in case optic disc proliferation is measured (1 P) or absence (0 P).
Blood vessel tufts formation: the score for blood vessel tufts is determined by dividing every clock hour of the preparation surface in 4 zones: Zone 1 (optic disc zone) is evaluated in addition; Zone 2: one point for every wing (maximal 4 P); Zone 3: one point for every clock hour (maximal 12 P); and Zone 4: one point for every clock hour (maximal 12 P). Thus, a maximum of 28 points is measured provided that no avascular areas exist, and a maximum of 12 points is calculated in case of complete avascularization.
Large clusters of blood vessel tufts: every large cluster of blood vessel tufts covering more than 3 sectors is counted as one point. Thus, maximal 8 points can be measured provided that no avascular areas exist, and maximal 4 points are assignable for complete avascularization.
Central vasoconstriction: 1 point is assigned to a vasoconstriction of zone 1 of greater than 50%; 1 point is allocated if the vasoconstriction is greater than 50% of every wing of zone 2 and 3. Thus, maximal 1 point can be assigned to zone 1, and maximal 4 points each for zones 2, 3 and 4. Since so far no vasoconstriction is ever observed for zone 4, a maximum of total 9 points (without zone 4) can be allotted.
Tortuosity of the vessels: 2 points are assigned if less than one-third of the vessels are tortuous; if the amount of tortuous blood vessels is between one-third and two-thirds, 4 points are allocated, and in case more than two-thirds of the vessels are tortuous, than 6 points are given.
Proliferation in avascular zones is never observed. This is in principle a mutual exclusion of criteria; the existence of vascular proliferations has a higher impact on the retinopathy score than large avascular areas. Therefore, the maximum score ever counted with this system is 38 points using a substance which is considered to enhance vascular proliferation.
The severity of retinopathy varies from animal to animal. […]

[4] = female monkeys, day 13 of dosing
[5] = female monkeys, day −7 relative to start of dosing
[6] = female monkeys, day −8 relative to start of dosing
[7] = male monkeys, day −5 relative to start of dosing
[8] = male monkeys, day −6 relative to start of dosing
[9] = right eye, FGF23CTP intravitreal, individual animals, retinal flatmounts
[10] = treated right eye (FGF23CTP) vs control left eye (PBS), DF 28

In the case of “Leu8, Asp10, Lysll, A1a16, G1n18, Thr33, A1a34 human PTH 1-34 [PTS893, Leu8, Asp10, Lysll, A1a16, G1n18, Thr33, A1a34 human PTH 1-34 [hPTH(1-34)]]”, the CREAT [1, 4] is reported as 5620 µmol/L and 8060 µmol/L, the “Ca2+” value [1, 4] is reported as 20.05 mmol/L and 12.35 mmol/L and the “Cl−” value [1, 4] is reported as 101 mmol/L and 133 mmol/L. For the same molecule, the D-PYR [1, 4] was 1356 nmol/L and 2036 nmol/L, the LDH [1, 4] was 10.0 IU/L and 9.0 IU/L and the “Mg2+” value [1, 4] was 6.90 mmol/L and 5.90 mmol/L. For the same molecule, the NTx/Crea [1, 4] was 447 nME/mM and 705 nME/mM, the Pyr/Crea [1, 4] was 241 nM/mM and 253 nM/mM and the VOLUME [1, 4] was 52 mL and 42 mL. The NTx/Crea [1, 5] was 576 nME/mM and 634 nME/mM, the Pyr/Crea [1, 5] was 163 nM/mM and 181 nM/mM and the CREAT [1, 6] was 19160 µmol/L and 14060 µmol/L. For the same molecule, the “Ca2+” value [1, 6] was 11.50 mmol/L and 6.60 mmol/L, the “K+” value [1, 6] was 302 mmol/L and 164 mmol/L and the LDH [1, 6] was 11.0 IU/L and 18.0 IU/L. For the same molecule, the “Mg2+” value [1, 6] was 7.35 mmol/L and 4.00 mmol/L, the “Na+” value [1, 6] was 145 mmol/L and 118 mmol/L and the “Ca2+” value ([1]; male monkeys, day 13 of dosing) was 7.55 mmol/L and 13.10 mmol/L. For the same molecule, the I.PHOS ([1]; male monkeys, day 13 of dosing) was 0.10 mmol/L and 0.17 mmol/L, the “K+” value ([1]; male monkeys, day 13 of dosing) was 107 mmol/L and 69 mmol/L and the LDH ([1]; male monkeys, day 13 of dosing) was 14.0 IU/L and 19.0 IU/L. For the same molecule, the “Mg2+” value ([1]; male monkeys, day 13 of dosing) was 8.70 mmol/L and 5.25 mmol/L, the NAG ([1]; male monkeys, day 13 of dosing) was 2.9 IU/l and 2.6 IU/l and the NTx/Crea ([1]; male monkeys, day 13 of dosing) was 621 nME/mM and 547 nME/mM. For the same molecule, the Pyr/Crea ([1]; male monkeys, day 13 of dosing) was 214 nM/mM and 204 nM/mM, the CREAT [1, 7] was 16160 µmol/L and 16120 µmol/L and the CTx [1, 7] was 11865 µg/L and 20108 µg/L. The D-PYR [1, 7] was 1660 nmol/L and 2278 nmol/L, the NTx [1, 7] was 5403 nM BCE and 8757 nM BCE and the NTx/Crea [1, 7] was 334 nME/mM and 543 nME/mM. The Pyr/Crea [1, 7] was 103 nM/mM and 141 nM/mM, the CREAT [1, 8] was 16160 µmol/L and 9940 µmol/L and the “Ca2+” value [1, 8] was 5.10 mmol/L and 3.50 mmol/L. For the same molecule, the “K+” value [1, 8] was 86 mmol/L and 125 mmol/L and the LDH [1, 8] was 7.0 IU/L and 9.0 IU/L.

In the case of “cyclo[4-(NH2—C2H4—NH—CO—O)Pro-Phg-DTrp-Lys-Tyr(4-Bzl)-Phe] [SOM230]”, the “Conclusions of the in vivo Profiling by the Data Mining Team: Function/Pathway” value [2] is reported as “Anti-growth activity; also recorded: GI tract/pancreatic; also recorded: Immunosuppression”, the “Findings by the Data Mining Team: Adrenals (gene with direction)” value [2] is reported as “IGF2−; also recorded: somatostatin−; also recorded: insulin receptor+; also recorded: urocortin+” and the “Findings by the Data Mining Team: Bone marrow (gene with direction)” value [2] is reported as “VIP− and peptide YY− and cyclin− and GAPDH−”. For the same molecule, the “Findings by the Data Mining Team: Kidney (gene with direction)” value [2] was “Solute carrier protein 9++; also recorded: urocortin+; also recorded: IGF2−; also recorded: beta 2−; also recorded: THRα+”, the “Findings by the Data Mining Team: Liver (gene with direction)” value [2] was “IGF2− and NMDA receptor+ and glutamate dehydrogenase+ and VIP and insulin− induced protein1 and STR5” and the “Findings by the Data Mining Team: Pituitary (gene with direction)” value [2] was “IGFR1− and GH1/2− and CSH(L)− and TSH− and CHRH2− and synthase++ and Immunoglobulin−−”. The “Findings by the Data Mining Team: Spleen (gene with direction)” value [2] was “IGF2− and IGBP6− and insulin receptor− and urocortin+ and Ig− and ribosomal protein −− and Nk cells+”, the “Findings by the Data Mining Team: Stomach (gene with direction)” value [2] was “Gastrin+; also recorded: hypocretin+; also recorded: glutamate receptor+; also recorded: GABAB−” and the “Findings by the Data Mining Team: Thymus (gene with direction)” value [2] was “IGFBP1+ and MHC classII− and Ig− and FKBP12− and CD4− and defensin alpha1+,”. For the same molecule, the “Findings by the Data Mining Team: Thyroid (gene with direction)” value [2] was “NPY− and cyclins−− and ATPase calcium channel+ and somatostatin receptor 4−,”.

B1: FGF23CTP: unique 75-mer COOH-terminal peptide of FGF-23, SEQ ID NO: 2 (peptide, listed as Homo sapiens)
chain: HTRSAEDDSERDPLNVLKPRARMTPAPASCSQELPSAEDNSPMASDPLGVVRGGRVNTHAGGTGPEGCRPFAKFI
In the case of B1, the “Proliferation score, Mean Difference (paired t-test, treated right eye vs PBS left eye)” value ([3]; 6 μg intravitreal, DF 28, P-Value 0.0375) is reported as −3.172, the “Effect on proliferative component of retinal angiopathy / proliferation score” value ([3]; intravitreal injection, b229 p=0.018, b476 paired t-test p=0.04) is reported as “significantly inhibited; also recorded: reaches statistical significance” and the avascular zone [3, 9] is reported as 1 (7×) and 2 (4×) and 0 (3×) and 3 (7×) and 4 (4×) and 7 and 6 (2×) and 5. For the same molecule, the blood vessel tufts [3, 9] was 6 (4×) and 2 (3×) and 4 (3×) and 1 (2×) and 3 and 5 (2×) and 0 (2×) and 7 (4×) and 10 (3×) and 14 (2×) and 13 and 11 and 9, the “large clusters of prolif.” value [3, 9] was 0 (16×) and 1 (6×) and 2 (2×) and 3 (2×) and 4 (2×) and 5 and the proliferation sum [3, 9] was 7 (2×) and 2 (3×) and 4 (4×) and 1 (2×) and 6 (4×) and 5 and 0 (2×) and 8 (2×) and 10 (2×) and 11 and 17 and 12 (2×) and 18 (2×) and 14. The tortuosity of vessels [3, 9] was 0 (8×) and 2 (7×) and 3 and 1 (9×) and 5 and 6 (2×) and 4, the “Paired t-test avascular zone: Mean Difference” value [3, 10] was −0.034 and the “Paired t-test proliferation sum: Mean Difference” value [3, 10] was −2.724. The “Paired t-test tortuosity of the vessels: Mean Difference” value [3, 10] was −0.517.
